Measurements published in ChEMBL document CHEMBL5370623, “Discovery of Quinazoline-2,4(1H,3H)-dione Derivatives Containing a Piperizinone Moiety as Potent PARP-1/2 Inhibitors─Design, Synthesis, In Vivo Antitumor Activity, and X-ray Crystal Structure Analysis” (J Med Chem, 2023).
Active and inactive are the calls of the source. The rule behind the calls is not given here.

Columns and labels:
[1] = MRT (0 to t) in BALB/c mouse at 2.5 mg/kg, iv measured upto 24 hrs by LC-MS/MS analysis; type: ADME, organism-based; conditions: in vivo
[2] = AUC (0 to infinity) in BALB/c mouse at 2.5 mg/kg, iv measured upto 24 hrs by LC-MS/MS analysis; type: ADME, organism-based; parameters: dose 2.5 mg/kg, time < 24 hrs, route iv; conditions: in vivo
[3] = Cmax in BALB/c mouse at 25 mg/kg, po measured upto 24 hrs by LC-MS/MS analysis; type: ADME, organism-based; parameters: time < 24 hrs, dose 25 mg/kg, route po; conditions: in vivo
MDA-MB-436 [4] = test: Antitumor activity against BRCAl-deficient human MDA-MB-436 cells xenografted in Balb/c athymic nude mouse assessed as tumor growth inhibition at 10 mg/kg, po qd measured after 23 days; type: functional; conditions: MDA-MB-436, 552 h, time 23 day, read-out: TGI
MDA-MB-436 [5] = test: Antitumor activity against BRCAl-deficient human MDA-MB-436 cells xenografted in Balb/c athymic nude mouse assessed as tumor growth inhibition at 1.1 mg/kg, po qd measured after 23 days; type: functional; conditions: MDA-MB-436, 552 h, time 23 day, read-out: TGI
[6] = biological target: T1, Poly [ADP-ribose] polymerase 2 (Homo sapiens, UniProt Q9UGN5); test: Inhibition of human recombinant PARP2 expressed in Escherichia coli BL21(DE3) incubated for 1 hr by ELISA assay
[7] = biological target: Protein mono-ADP-ribosyltransferase PARP3 (Homo sapiens, UniProt Q9Y6F1); test: Inhibition of human recombinant N-terminal GST-tagged PARP3 (2 to 540(end) residues) expressed in Sf9 cells
DU-145 [8] = test: Antitumor activity against PTEN-deficient human DU-145 cells xenografted in Balb/c athymic nude mouse assessed as tumor growth inhibition at 20 mg/kg, po qd measured after 14 days; type: functional; conditions: DU-145, 336 h, time 14 day, read-out: TGI
DU-145 [9] = test: Antitumor activity against PTEN-deficient human DU-145 cells xenografted in Balb/c athymic nude mouse assessed as tumor growth inhibition at 10 mg/kg, po qd measured after 14 days; type: functional; conditions: DU-145, 336 h, time 14 day, read-out: TGI
[10] = Half life in BALB/c mouse at 25 mg/kg, po measured upto 24 hrs by LC-MS/MS analysis; type: ADME, organism-based; conditions: in vivo
[11] = AUC (0 to infinity) in BALB/c mouse at 25 mg/kg, po measured upto 24 hrs by LC-MS/MS analysis; type: ADME, organism-based; parameters: dose 25 mg/kg, time < 24 hrs, route po; conditions: in vivo
[12] = AUC (0 to t) in BALB/c mouse at 25 mg/kg, po measured upto 24 hrs by LC-MS/MS analysis; type: ADME, organism-based; parameters: time < 24 hrs, dose 25 mg/kg, route po; conditions: in vivo
[13] = AUC (0 to t) in BALB/c mouse at 2.5 mg/kg, iv measured upto 24 hrs by LC-MS/MS analysis; type: ADME, organism-based; parameters: time < 24 hrs, dose 2.5 mg/kg, route iv; conditions: in vivo
[14] = biological target: T1, Poly [ADP-ribose] polymerase 2
Description: Inhibition of human recombinant N-terminal GST-tagged PARP2 (2 to 583(end) residues) expressed in Sf9 cells

[15] = MRT (0 to infinity) in BALB/c mouse at 2.5 mg/kg, iv measured upto 24 hrs by LC-MS/MS analysis; type: ADME, organism-based; conditions: in vivo
[16] = Tmax in BALB/c mouse at 2.5 mg/kg, iv measured upto 24 hrs by LC-MS/MS analysis; type: ADME, organism-based; conditions: in vivo
[17] = biological target: T2, Poly [ADP-ribose] polymerase 1 (Homo sapiens, UniProt P09874); test: Inhibition of human recombinant PARP1 expressed in Escherichia coli BL21(DE3) incubated for 1 hr by ELISA assay
[18] = biological target: Protein mono-ADP-ribosyltransferase PARP6 (Homo sapiens, UniProt Q2NL67); test: Inhibition of human recombinant N-terminal GST-tagged PARP6 (1 to 630(end) residues) expressed in Sf9 cells
[19] = biological target: Protein mono-ADP-ribosyltransferase PARP8 (Homo sapiens, UniProt Q8N3A8); test: Inhibition of PARP8 (unknown origin)
[20] = Aqueous solubility of the compound; type: physicochemical
[21] = Oral bioavailability in BALB/c mouse at 25 mg/kg measured upto 24 hrs by LC-MS/MS analysis; type: ADME, organism-based; conditions: in vivo
[22] = biological target: Protein mono-ADP-ribosyltransferase TIPARP (Homo sapiens, UniProt Q7Z3E1); test: Inhibition of human recombinant N-terminal FLAG-tagged PARP7 (400 to 657(end) residues) expressed in Sf9 cells
[23] = Toxicity in C57BL/6 mouse implanted with mouse MC38 cells assessed as change in body weight at 10 mg/kg, po qd measured after 17 days; type: organism-based, MC-38; conditions: in vivo, 408 h, time 17 day
MDA-MB-436 [24] = test: Antitumor activity against BRCAl-deficient human MDA-MB-436 cells xenografted in Balb/c athymic nude mouse assessed as tumor growth inhibition at 3.3 mg/kg, po qd measured after 23 days; type: functional; conditions: MDA-MB-436, 552 h, time 23 day, read-out: TGI
[25] = MRT (0 to t) in BALB/c mouse at 25 mg/kg, po measured upto 24 hrs by LC-MS/MS analysis; type: ADME, organism-based; conditions: in vivo
[26] = Tmax in BALB/c mouse at 25 mg/kg, po measured upto 24 hrs by LC-MS/MS analysis; type: ADME, organism-based; conditions: in vivo
[27] = biological target: T2, Poly [ADP-ribose] polymerase 1; test: Inhibition of human recombinant N-terminal GST-tagged PARP1 (2 to 1014(end) residues) expressed in Sf9 cells
DU-145 [28] = test: Antitumor activity against PTEN-deficient human DU-145 cells xenografted in Balb/c athymic nude mouse assessed as tumor growth inhibition at 5 mg/kg, po qd measured after 14 days; type: functional; conditions: DU-145, 336 h, time 14 day, read-out: TGI
[29] = Cmax in BALB/c mouse at 2.5 mg/kg, iv measured upto 24 hrs by LC-MS/MS analysis; type: ADME, organism-based; parameters: time < 24 hrs, dose 2.5 mg/kg, route iv; conditions: in vivo
[30] = MRT (0 to infinity) in BALB/c mouse at 25 mg/kg, po measured upto 24 hrs by LC-MS/MS analysis; type: ADME, organism-based; conditions: in vivo
MC-38 [31] = test: Antitumor activity against mouse MC38 cells implanted in C57BL/6 mouse assessed as tumor growth inhibition at 10 mg/kg, po qd measured after 17 days; type: functional; conditions: MC-38, 408 h, time 17 day, read-out: TGI
[32] = Half life in BALB/c mouse at 2.5 mg/kg, iv measured upto 24 hrs by LC-MS/MS analysis; type: ADME, organism-based; conditions: in vivo
[33] = Toxicity in Balb/c athymic nude mouse xenografted with BRCAl-deficient human MDA-MB-436 cells assessed as change in body weight at 1.1 to 10 mg/kg, po qd measured after 23 days; type: organism-based; conditions: in vivo, 552 h, dose 1.1-10 mg/kg, time 23 day
[34] = Binding affinity to cat PARP1 assessed as dissociation constant by SPR assay; parameters: species or system Felis catus
[35] = Toxicity in Balb/c athymic nude mouse xenografted with PTEN-deficient human DU145 cells assessed as change in body weight at 5 to 20 mg/kg, po qd measured after 14 days; type: organism-based, DU-145; conditions: in vivo, 336 h, dose 5-20 mg/kg, time 14 day
[36] = Binding affinity to cat PARP2 assessed as dissociation constant by SPR assay; parameters: species or system Felis catus
MC-38 [37] = test: Antitumor activity against mouse MC38 cells implanted in C57BL/6 mouse assessed as increase in CD8+T cells in tumor at 50 mg/kg, po qd measured after 17 days by flow cytometry analysis; type: functional, organism-based; conditions: time 17.0 day
MX1 [38] = test: Potentiation factor, ratio of IC50 for cytotoxicity against human MX1 cells to IC50 for cytotoxicity against human MX1 cells in presence of temozolomide; type: functional
MX1 [39] = test: Cytotoxicity against human MX1 cells […] assessed as inhibition of cell growth measured after 72 hrs by MTT assay; type: functional, cell-based; conditions: MX1, 72 h
MC-38 [40] = test: Antitumor activity against mouse MC38 cells implanted in C57BL/6 mouse assessed as tumor growth inhibition at 50 mg/kg, po qd measured after 17 days; type: functional; conditions: time 17 day
Felis catus [41] = organism: Felis catus; test: Binding affinity to cat PARP1 assessed as dissociative half-life by SPR assay
Felis catus [42] = organism: Felis catus; test: Binding affinity to cat PARP2 assessed as dissociative half-life by SPR assay

T2 sequence (P09874 whole entry): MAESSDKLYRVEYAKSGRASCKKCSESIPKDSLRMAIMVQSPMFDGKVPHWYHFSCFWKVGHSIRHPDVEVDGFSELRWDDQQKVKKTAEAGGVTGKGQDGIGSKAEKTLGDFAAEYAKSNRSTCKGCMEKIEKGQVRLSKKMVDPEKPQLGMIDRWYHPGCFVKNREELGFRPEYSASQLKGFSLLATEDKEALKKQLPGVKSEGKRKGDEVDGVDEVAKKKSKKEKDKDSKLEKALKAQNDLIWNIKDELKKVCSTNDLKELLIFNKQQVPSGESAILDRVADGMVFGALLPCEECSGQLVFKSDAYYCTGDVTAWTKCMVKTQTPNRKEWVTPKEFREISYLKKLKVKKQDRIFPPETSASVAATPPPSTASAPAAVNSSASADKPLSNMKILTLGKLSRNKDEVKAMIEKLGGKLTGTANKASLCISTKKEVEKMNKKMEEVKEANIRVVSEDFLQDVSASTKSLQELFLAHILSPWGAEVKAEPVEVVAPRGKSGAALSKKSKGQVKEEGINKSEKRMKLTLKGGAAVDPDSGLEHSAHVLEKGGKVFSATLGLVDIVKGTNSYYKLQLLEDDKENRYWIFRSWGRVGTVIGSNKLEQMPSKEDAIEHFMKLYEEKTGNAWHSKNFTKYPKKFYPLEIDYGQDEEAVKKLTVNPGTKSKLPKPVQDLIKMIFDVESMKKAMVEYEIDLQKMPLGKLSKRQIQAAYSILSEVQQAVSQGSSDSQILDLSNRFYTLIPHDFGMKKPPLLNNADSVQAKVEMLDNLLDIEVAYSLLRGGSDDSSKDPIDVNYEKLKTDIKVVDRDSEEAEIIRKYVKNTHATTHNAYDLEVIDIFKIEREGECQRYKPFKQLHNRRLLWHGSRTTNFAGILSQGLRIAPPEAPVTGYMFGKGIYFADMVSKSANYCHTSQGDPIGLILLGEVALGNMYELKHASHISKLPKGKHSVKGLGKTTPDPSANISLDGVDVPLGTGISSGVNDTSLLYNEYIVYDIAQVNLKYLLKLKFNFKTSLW
T1 sequence (Q9UGN5 whole entry): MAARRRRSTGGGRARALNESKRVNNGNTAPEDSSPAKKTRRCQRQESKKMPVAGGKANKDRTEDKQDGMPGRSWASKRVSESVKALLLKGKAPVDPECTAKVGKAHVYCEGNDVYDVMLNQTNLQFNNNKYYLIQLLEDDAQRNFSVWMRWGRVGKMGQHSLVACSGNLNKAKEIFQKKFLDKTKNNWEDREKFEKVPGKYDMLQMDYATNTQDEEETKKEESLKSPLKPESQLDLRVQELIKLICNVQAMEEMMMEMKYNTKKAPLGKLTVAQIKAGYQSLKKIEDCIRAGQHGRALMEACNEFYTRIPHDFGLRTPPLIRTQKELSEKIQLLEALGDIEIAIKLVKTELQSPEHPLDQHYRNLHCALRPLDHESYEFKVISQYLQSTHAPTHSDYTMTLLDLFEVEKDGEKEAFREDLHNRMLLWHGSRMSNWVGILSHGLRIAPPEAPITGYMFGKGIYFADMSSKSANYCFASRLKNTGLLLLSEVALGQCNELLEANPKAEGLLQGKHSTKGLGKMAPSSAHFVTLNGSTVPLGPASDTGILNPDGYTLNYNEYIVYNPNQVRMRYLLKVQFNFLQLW
Protein mono-ADP-ribosyltransferase PARP3, sequence (Q9Y6F1 whole entry): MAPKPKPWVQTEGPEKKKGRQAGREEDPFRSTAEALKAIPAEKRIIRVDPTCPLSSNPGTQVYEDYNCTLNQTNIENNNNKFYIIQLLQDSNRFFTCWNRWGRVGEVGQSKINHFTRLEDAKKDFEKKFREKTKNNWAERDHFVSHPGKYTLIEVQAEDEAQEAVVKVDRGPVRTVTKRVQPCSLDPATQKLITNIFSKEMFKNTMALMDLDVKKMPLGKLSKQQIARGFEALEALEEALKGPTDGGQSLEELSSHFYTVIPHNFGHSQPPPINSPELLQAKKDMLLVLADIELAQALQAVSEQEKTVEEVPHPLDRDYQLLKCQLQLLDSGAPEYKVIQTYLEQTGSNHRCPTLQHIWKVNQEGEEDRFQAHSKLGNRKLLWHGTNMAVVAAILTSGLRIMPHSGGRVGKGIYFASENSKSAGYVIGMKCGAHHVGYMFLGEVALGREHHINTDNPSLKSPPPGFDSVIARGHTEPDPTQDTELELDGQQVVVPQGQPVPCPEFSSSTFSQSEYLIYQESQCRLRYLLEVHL
Protein mono-ADP-ribosyltransferase TIPARP, sequence (Q7Z3E1 whole entry): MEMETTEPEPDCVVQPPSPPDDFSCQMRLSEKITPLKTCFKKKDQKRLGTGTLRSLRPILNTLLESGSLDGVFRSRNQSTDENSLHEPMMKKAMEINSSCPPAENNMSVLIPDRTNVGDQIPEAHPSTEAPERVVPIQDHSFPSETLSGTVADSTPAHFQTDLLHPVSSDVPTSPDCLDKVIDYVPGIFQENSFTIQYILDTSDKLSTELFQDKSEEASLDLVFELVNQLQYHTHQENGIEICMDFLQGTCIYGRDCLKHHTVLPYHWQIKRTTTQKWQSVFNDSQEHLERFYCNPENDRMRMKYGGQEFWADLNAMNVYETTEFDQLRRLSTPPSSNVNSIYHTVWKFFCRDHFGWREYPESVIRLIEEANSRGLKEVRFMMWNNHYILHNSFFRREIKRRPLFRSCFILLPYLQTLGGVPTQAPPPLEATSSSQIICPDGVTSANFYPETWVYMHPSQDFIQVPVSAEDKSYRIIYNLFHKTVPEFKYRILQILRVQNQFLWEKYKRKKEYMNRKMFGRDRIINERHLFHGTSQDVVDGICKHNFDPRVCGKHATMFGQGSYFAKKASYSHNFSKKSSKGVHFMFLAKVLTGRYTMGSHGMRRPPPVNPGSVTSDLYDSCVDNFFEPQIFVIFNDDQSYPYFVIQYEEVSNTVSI
Protein mono-ADP-ribosyltransferase PARP6, sequence (Q2NL67 whole entry): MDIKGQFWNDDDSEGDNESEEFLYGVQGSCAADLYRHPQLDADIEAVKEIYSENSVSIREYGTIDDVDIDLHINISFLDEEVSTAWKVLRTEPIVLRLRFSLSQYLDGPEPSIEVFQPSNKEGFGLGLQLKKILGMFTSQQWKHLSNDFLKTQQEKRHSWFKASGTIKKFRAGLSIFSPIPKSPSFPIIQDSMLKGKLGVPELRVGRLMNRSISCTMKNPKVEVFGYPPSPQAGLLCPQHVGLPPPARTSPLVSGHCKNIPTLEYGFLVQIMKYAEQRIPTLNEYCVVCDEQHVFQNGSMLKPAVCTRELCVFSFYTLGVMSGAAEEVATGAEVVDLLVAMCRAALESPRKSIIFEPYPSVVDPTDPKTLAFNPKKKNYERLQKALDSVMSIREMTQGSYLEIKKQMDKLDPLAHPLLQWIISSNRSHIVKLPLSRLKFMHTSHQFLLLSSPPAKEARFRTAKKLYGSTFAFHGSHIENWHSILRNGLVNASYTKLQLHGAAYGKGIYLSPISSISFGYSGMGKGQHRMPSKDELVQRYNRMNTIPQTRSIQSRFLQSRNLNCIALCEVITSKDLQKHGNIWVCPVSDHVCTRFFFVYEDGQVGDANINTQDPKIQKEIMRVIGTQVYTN
Protein mono-ADP-ribosyltransferase PARP8, sequence (Q8N3A8 whole entry): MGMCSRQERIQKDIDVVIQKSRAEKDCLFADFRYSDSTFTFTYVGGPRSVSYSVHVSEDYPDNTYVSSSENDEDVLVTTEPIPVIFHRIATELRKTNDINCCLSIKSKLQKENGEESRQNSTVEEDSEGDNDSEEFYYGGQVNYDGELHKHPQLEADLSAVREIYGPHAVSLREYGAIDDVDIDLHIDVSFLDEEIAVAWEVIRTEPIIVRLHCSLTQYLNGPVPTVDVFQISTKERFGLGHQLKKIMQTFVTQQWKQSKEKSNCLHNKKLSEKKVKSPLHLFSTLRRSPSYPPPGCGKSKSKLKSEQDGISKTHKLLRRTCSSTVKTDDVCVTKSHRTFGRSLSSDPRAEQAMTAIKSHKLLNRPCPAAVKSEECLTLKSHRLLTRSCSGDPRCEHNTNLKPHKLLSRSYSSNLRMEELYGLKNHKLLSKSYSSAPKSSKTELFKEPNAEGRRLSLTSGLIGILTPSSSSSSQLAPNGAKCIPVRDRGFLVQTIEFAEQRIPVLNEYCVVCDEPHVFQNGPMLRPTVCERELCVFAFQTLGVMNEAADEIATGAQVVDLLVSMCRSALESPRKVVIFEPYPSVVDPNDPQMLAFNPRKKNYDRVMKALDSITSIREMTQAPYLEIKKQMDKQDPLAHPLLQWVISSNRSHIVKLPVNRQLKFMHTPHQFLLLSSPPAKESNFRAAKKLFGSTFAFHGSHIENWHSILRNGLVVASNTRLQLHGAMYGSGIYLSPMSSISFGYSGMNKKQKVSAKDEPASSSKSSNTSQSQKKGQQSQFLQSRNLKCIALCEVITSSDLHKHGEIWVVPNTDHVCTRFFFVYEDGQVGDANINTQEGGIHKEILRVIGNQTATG

CCC(CC)N1CCN(C(=O)c2cc(Cn3c(=O)[n-]c(=O)c4ccccc43)ccc2F)CC1=O.[Na+]
MRT last at 24 h [1]: 7.8 min | AUC(0-inf) [2]: 419 ng·h/mL | Cmax [3]: 1540 ng/mL | inhibition in vivo at 10 mg/kg (MDA-MB-436 [4]): 94.3% | inhibition in vivo at 1.1 mg/kg (MDA-MB-436 [5]): 54.6% | IC50 [6]: 0.87 nM | IC50 [7]: 51 nM | inhibition in vivo at 20 mg/kg (DU-145 [8]): 91.2% | inhibition in vivo at 10 mg/kg (DU-145 [9]): 87% | half-life [10]: 16.2 min | AUC(0-inf) [11]: 617 ng·h/mL | AUC(0-t) at 24 h [12]: 612 ng·h/mL | AUC(0-t) at 24 h [13]: 417 ng·h/mL | IC50 [14]: 0.87 nM | MRT inf [15]: 7.8 min | Tmax [16]: 1.8 min | IC50 [17]: 0.94 nM | IC50 [18]: ~280 nM | IC50 [19]: 13 nM | solubility [20]: 223 µg/mL | bioavailability [21]: 14.7% | IC50 [22]: 0.21 nM | Activity [23]: Non-Toxic | inhibition in vivo at 3.3 mg/kg (MDA-MB-436 [24]): 84.9% | MRT last at 24 h [25]: 18.6 min | Tmax [26]: 4.8 min | IC50 [27]: 0.94 nM | inhibition in vivo at 5 mg/kg (DU-145 [28]): 69.2% | Cmax [29]: 2430 ng/mL | MRT inf [30]: 19.2 min | inhibition in vivo at 10 mg/kg (MC-38 [31]): 57.3% | half-life [32]: 7.8 min | Activity [33]: Non-Toxic | Kd [34]: 0.83 nM | Activity [35]: Non-Toxic | Kd [36]: 0.75 nM

O=C(c1cc(Cc2n[nH]c(=O)c3ccccc23)ccc1F)N1CCN(C(=O)C2CC2)CC1 [OLAPARIB]
Activity (MC-38 [37]): inactive | PF50 (MX1 [38]): >10 | IC50 (MX1 [39]): 8.26 nM | TGI (MC-38 [40]): 57.9% | T1/2 (Felis catus [41]): 51.1 min | T1/2 (Felis catus [42]): 17.4 min
